Data taken from US20260098017A1, “NOVEL AROMATIC RING DERIVATIVE CONTAINING AMIDE SUBSTITUTION AND USE THEREOF” (TIANJIN PHARMACEUTICAL BIOTECHNOLOGY CO., LTD., priority 2022, published 2026).

The compounds below were run against Ba/F3 cell line expressing TYK2 (Homo sapiens, UniProt P29597, cells depend on it, form not given) (assay: In vitro cellular inhibition assay (Ba/F3 cell proliferation, CellTiter-Glo)). Conditions: read-out: IC50 (the source's name).
Type: cell-based
Procedure: The inhibitory effect of the compounds of formula (I) according to the present invention on the TYK2 signaling pathway in cells was assessed using the following method:
Instrumentation: SpectraMax Paradigm reader.
Method: in this experiment, a Ba/F3 cell line expressing TYK2 was employed to assess the effect of the compounds on cell proliferation inhibition by measuring their effects on cell activity in vitro.
Procedure: a CellTiter-Glo buffer was thawed and placed aside till room temperature. A CellTiter-Glo substrate was placed aside till room temperature and dissolved with the buffer to prepare a CellTiter-Glo working solution. To a 96-well flat bottom transparent drug plate, 98 μL of cell culture medium and 2 μL of gradient diluted compound solution were added. The drug plate was placed aside for 10 min, and then 50 μL of the CellTiter-Glo working solution was added. The drug plate was subsequently shaken on an orbital shaker for 2 min and placed aside at room temperature for an additional 10 min. Finally, the luminescence signal was measured on the SpectraMax Paradigm reader.
Data Analysis: the cell proliferation inhibition rate data were processed using the following formula:
Inhibition Rate (Inh %)=100−(RLUDrug−RLUMin)/(RLUMax−RLUMin)×100%.
The inhibition rates of compounds with different concentrations were calculated in EXCEL, and then GraphPad Prism software was employed to plot inhibition rate curve and calculate relevant parameters, including maximum and minimum cell inhibition rates, IC50 values.

Row | GI50 [nM] | Structure (SMILES)
1 | 5 to 10 | [2H]C([2H])([2H])NC(=O)c1nnc(NC(=O)C2CC2)cc1Nc1cccc(C(=O)Nc2ccccc2C)c1OC [Example 10]
2 | 5 to 10 | [2H]C([2H])([2H])NC(=O)c1nnc(NC(=O)C2CC2)cc1Nc1cccc(C(=O)Nc2ccc(C(C)(C)C)c(C)c2)c1OC [Example 28]
3 | 5 to 10 | [2H]C([2H])([2H])NC(=O)c1cnc(NC(=O)C2CC2)cc1Nc1cccc(C(=O)Nc2cccc(C)n2)c1OC [Example 89]
4 | 5 to 10 | [2H]C([2H])([2H])NC(=O)c1nnc(NC(=O)C2CC2)cc1Nc1cccc(C(=O)NC(C)(C)C)c1OC [Example 105]
5 | 5 to 10 | [2H]C([2H])([2H])NC(=O)c1cnc(NC(=O)C2CC2)cc1Nc1cccc(C(=O)Nc2ccc(C3CC3)cc2)c1OC [Example 71]
6 | 5 to 10 | [2H]C([2H])([2H])NC(=O)c1nnc(NC(=O)C2CC2)cc1Nc1cccc(C(=O)Nc2cccc(F)c2)c1OC [Example 6]
7 | 5 to 10 | [2H]C([2H])([2H])NC(=O)c1cnc(NC(=O)C2CC2)cc1Nc1cccc(C(=O)Nc2ccc(OC)cc2)c1OC [Example 76]
8 | 5 to 10 | [2H]C([2H])([2H])NC(=O)c1nnc(NC(=O)C2CC2)cc1Nc1cccc(C(=O)Nc2ccccc2)c1OC [Example 1]
9 | 5 to 10 | [2H]C([2H])([2H])NC(=O)c1cnc(NC(=O)C2CC2)cc1Nc1cccc(C(=O)Nc2cncnc2)c1OC [Example 104]
10 | 5 to 10 | [2H]C([2H])([2H])NC(=O)c1nnc(NC(=O)C2CC2)cc1Nc1cccc(C(=O)Nc2cn(C)cn2)c1OC [Example 35]
11 | 5 to 10 | [2H]C([2H])([2H])NC(=O)c1cnc(NC(=O)C2CC2)cc1Nc1cccc(C(=O)Nc2ccccn2)c1OC [Example 100]
12 | 5 to 10 | [2H]C([2H])([2H])NC(=O)c1cnc(NC(=O)C2CC2)cc1Nc1cccc(C(=O)Nc2cccc(OC)c2)c1OC [Example 66]
13 | 5 to 10 | [2H]C([2H])([2H])NC(=O)c1nnc(NC(=O)C2CC2)cc1Nc1cccc(C(=O)Nc2ccn(C)n2)c1OC [Example 33]
14 | 5 to 10 | [2H]C([2H])([2H])NC(=O)c1cnc(NC(=O)C2CC2)cc1Nc1cccc(C(=O)Nc2cn(C)cn2)c1OC [Example 87]
15 | 5 to 10 | [2H]C([2H])([2H])NC(=O)c1nnc(NC(=O)C2CC2)cc1Nc1cccc(C(=O)Nc2ccc(C#N)c(C)c2)c1OC [Example 30]
16 | 5 to 10 | [2H]C([2H])([2H])NC(=O)c1nnc(NC(=O)C2CC2)cc1Nc1cccc(C(=O)Nc2cccc(C)c2C)c1OC [Example 8]
17 | 5 to 10 | [2H]C([2H])([2H])NC(=O)c1nnc(NC(=O)C2CC2)cc1Nc1cccc(C(=O)Nc2ccc(F)c(C)c2)c1OC [Example 32]
18 | 5 to 10 | [2H]C([2H])([2H])NC(=O)c1nnc(NC(=O)C2CC2)cc1Nc1cccc(C(=O)Nc2ccc(OC)c(C)c2)c1OC [Example 31]
19 | 5 to 10 | [2H]C([2H])([2H])NC(=O)c1cnc(NC(=O)C2CC2)cc1Nc1cccc(C(=O)Nc2cccc(C(C)C)c2)c1OC [Example 68]
20 | 5 to 10 | [2H]C([2H])([2H])NC(=O)c1nnc(NC(=O)C2CC2)cc1Nc1cccc(C(=O)Nc2ccc(C#N)cc2)c1OC [Example 23]
21 | 5 to 10 | [2H]C([2H])([2H])NC(=O)c1cnc(NC(=O)C2CC2)cc1Nc1cccc(C(=O)Nc2cc(C)ccn2)c1OC [Example 92]
22 | 5 to 10 | [2H]C([2H])([2H])NC(=O)c1cnc(NC(=O)C2CC2)cc1Nc1cccc(C(=O)Nc2ccc(C#N)cc2)c1OC [Example 75]
23 | 5 to 10 | [2H]C([2H])([2H])NC(=O)c1cnc(NC(=O)C2CC2)cc1Nc1cccc(C(=O)Nc2ccncc2)c1OC [Example 102]
24 | 5 to 10 | [2H]C([2H])([2H])NC(=O)c1cnc(NC(=O)C2CC2)cc1Nc1cccc(C(=O)Nc2cccc(C#N)c2)c1OC [Example 67]

Row | GI50 [nM] | Structure (SMILES)
25 | 5 to 10 | [2H]C([2H])([2H])NC(=O)c1nnc(NC(=O)C2CC2)cc1Nc1cccc(C(=O)Nc2ncccn2)c1OC [Example 51]
26 | 5 to 10 | [2H]C([2H])([2H])NC(=O)c1cnc(NC(=O)C2CC2)cc1Nc1cccc(C(=O)Nc2ccc(C)cn2)c1OC [Example 95]
27 | 5 to 10 | [2H]C([2H])([2H])NC(=O)c1nnc(NC(=O)C2CC2)cc1Nc1cccc(C(=O)Nc2ccccn2)c1OC [Example 48]
28 | 5 to 10 | [2H]C([2H])([2H])NC(=O)c1nnc(NC(=O)C2CC2)cc1Nc1cccc(C(=O)Nc2ccc(C(C)C)cc2)c1OC [Example 20]
29 | 5 to 10 | [2H]C([2H])([2H])NC(=O)c1nnc(NC(=O)C2CC2)cc1Nc1cccc(C(=O)Nc2ccnc(C)c2)c1OC [Example 39]
30 | 5 to 10 | [2H]C([2H])([2H])NC(=O)c1nnc(NC(=O)C2CC2)cc1Nc1cccc(C(=O)Nc2cccc(C(C)(C)C)c2)c1OC [Example 17]
31 | 5 to 10 | [2H]C([2H])([2H])NC(=O)c1cnc(NC(=O)C2CC2)cc1Nc1cccc(C(=O)Nc2cccc(C)c2C)c1OC [Example 60]
32 | 5 to 10 | [2H]C([2H])([2H])NC(=O)c1cnc(NC(=O)C2CC2)cc1Nc1cccc(C(=O)Nc2ccnc(C)c2)c1OC [Example 90]
33 | 5 to 10 | [2H]C([2H])([2H])NC(=O)c1nnc(NC(=O)C2CC2)cc1Nc1cccc(C(=O)Nc2ccccc2F)c1OC [Example 7]
34 | 5 to 10 | [2H]C([2H])([2H])NC(=O)c1cnc(NC(=O)C2CC2)cc1Nc1cccc(C(=O)Nc2ccc(C(C)C)cc2)c1OC [Example 72]
35 | 5 to 10 | [2H]C([2H])([2H])NC(=O)c1nnc(NC(=O)C2CC2)cc1Nc1cccc(C(=O)Nc2ncc(C)cn2)c1OC [Example 45]
36 | 5 to 10 | [2H]C([2H])([2H])NC(=O)c1nnc(NC(=O)C2CC2)cc1Nc1cccc(C(=O)Nc2ccc(C)cn2)c1OC [Example 43]
37 | 5 to 10 | [2H]C([2H])([2H])NC(=O)c1nnc(NC(=O)C2CC2)cc1Nc1cccc(C(=O)Nc2cccc(C(F)(F)F)c2)c1OC [Example 12]
38 | 5 to 10 | [2H]C([2H])([2H])NC(=O)c1cnc(NC(=O)C2CC2)cc1Nc1cccc(C(=O)Nc2cccc(C(C)(C)C)c2)c1OC [Example 69]
39 | 5 to 10 | [2H]C([2H])([2H])NC(=O)c1nnc(NC(=O)C2CC2)cc1Nc1cccc(C(=O)Nc2ccc(F)nc2)c1OC [Example 46]
40 | 5 to 10 | [2H]C([2H])([2H])NC(=O)c1cnc(NC(=O)C2CC2)cc1Nc1cccc(C(=O)Nc2cnc(F)nc2)c1OC [Example 99]
41 | 5 to 10 | [2H]C([2H])([2H])NC(=O)c1nnc(NC(=O)C2CC2)cc1Nc1cccc(C(=O)Nc2ccc(C3CC3)cc2)c1OC [Example 19]
42 | 5 to 10 | [2H]C([2H])([2H])NC(=O)c1nnc(NC(=O)C2CC2)cc1Nc1cccc(C(=O)Nc2cccc(OC)c2)c1OC [Example 14]
43 | 5 to 10 | [2H]C([2H])([2H])NC(=O)c1cnc(NC(=O)C2CC2)cc1Nc1cccc(C(=O)Nc2cccc(CC)c2)c1OC [Example 65]
44 | 5 to 10 | [2H]C([2H])([2H])NC(=O)c1cnc(NC(=O)C2CC2)cc1Nc1cccc(C(=O)Nc2ccc(OC)c(C)c2)c1OC [Example 83]
45 | 5 to 10 | [2H]C([2H])([2H])NC(=O)c1cnc(NC(=O)C2CC2)cc1Nc1cccc(C(=O)Nc2ccc(C(F)(F)F)c(C)c2)c1OC [Example 81]
46 | 5 to 10 | [2H]C([2H])([2H])NC(=O)c1nnc(NC(=O)C2CC2)cc1Nc1cccc(C(=O)Nc2ccc(C(C)C)c(C)c2)c1OC [Example 27]
47 | 5 to 10 | [2H]C([2H])([2H])NC(=O)c1cnc(NC(=O)C2CC2)cc1Nc1cccc(C(=O)Nc2ccc(F)nc2)c1OC [Example 98]
